Results on 11 molecules are retold here after US20100016285A1, “HETEROCYCLIDENE-N-(ARYL) ACETAMIDE DERIVATIVE” (MOCHIDA PHARMACEUTICAL CO., LTD., priority 2007, published 2010).

The target of the experiment is T1, human TRPV1 (Homo sapiens, UniProt Q8NER1).
T1 construct: expressed in transfected cells; host or cells: CHO-K1 cells, pCAGGS vector, clones selected by limiting dilution
Description: Capsaicin-induced Ca influx in transformed CHO cells, FDSS-6000 (b-1), A2 value. It is filed as cell-based. The conditions noted are these: concentration shifting the capsaicin concentration-reaction curve two times rightward; CHO cells expressing TRPV1. The text has this:
(1) Measurement of Capsaicin-Induced Ca Influx in a Transformed CHO Cell Line Expressing Human TRPV1
(a) Establishment of a Transformed CHO Cell Line Expressing Human and Rat TRPV1
Human and rat vanilloid receptor 1 (hTRPV1 and rTRPV1) cDNA was cloned from human brain and rat dorsal root ganglion, respectively. The cloned TRPV1 cDNA was incorporated in a pCAGGS vector. The vector was introduced to a CHO-K1 cell line, thus performing transformation. Clones obtained by limiting dilution were stimulated with capsaicin. Clones with a high responsiveness were selected using an increase in the Ca concentration as an indicator. The selected clones were used for the following experiment.
(b-1) Measurement of Ca Influx using FDSS-6000
The transformed CHO cells expressing human or rat TRPV1 were seeded in a 96-well plate (with black walls and transparent bottoms, manufactured by Greiner) at a density of 40,000 cells per well. The cells were cultured at 37° C. in 5% CO2 atmosphere for one night. A loading solution of FLIPR Calcium 3 assay kit (manufactured by Molecular Devices Corporation) containing 2.5 mmol/L of probenecid was then added to each of the wells in the same amount as the culture medium, and the cells were cultured at 37° C. for 60 minutes. For three minutes after the cells were stimulated with capsaicin (1 nmol/L to 1 μmol/L), the change of the intracellular Ca concentration was measured using FDSS-6000 (λex: 480 nm, λem: […], manufactured by Hamamatsu Photonics K.K.). The integrated values of the increase rate of the intracellular Ca concentration were calculated for a group treated with the compounds of the present invention and a group treated with a vehicle, thus allowing capsaicin concentration-reaction curves to be obtained. A concentration (A2 value) of each of the compounds of the present invention, at which the capsaicin concentration-reaction curve obtained when the cells were treated with the vehicle was shifted two times rightward, was calculated. The inhibitory effects of the test compounds were compared using this value as an indicator.

Each structure is given as a SMILES string.

T1 sequence (Q8NER1 whole entry): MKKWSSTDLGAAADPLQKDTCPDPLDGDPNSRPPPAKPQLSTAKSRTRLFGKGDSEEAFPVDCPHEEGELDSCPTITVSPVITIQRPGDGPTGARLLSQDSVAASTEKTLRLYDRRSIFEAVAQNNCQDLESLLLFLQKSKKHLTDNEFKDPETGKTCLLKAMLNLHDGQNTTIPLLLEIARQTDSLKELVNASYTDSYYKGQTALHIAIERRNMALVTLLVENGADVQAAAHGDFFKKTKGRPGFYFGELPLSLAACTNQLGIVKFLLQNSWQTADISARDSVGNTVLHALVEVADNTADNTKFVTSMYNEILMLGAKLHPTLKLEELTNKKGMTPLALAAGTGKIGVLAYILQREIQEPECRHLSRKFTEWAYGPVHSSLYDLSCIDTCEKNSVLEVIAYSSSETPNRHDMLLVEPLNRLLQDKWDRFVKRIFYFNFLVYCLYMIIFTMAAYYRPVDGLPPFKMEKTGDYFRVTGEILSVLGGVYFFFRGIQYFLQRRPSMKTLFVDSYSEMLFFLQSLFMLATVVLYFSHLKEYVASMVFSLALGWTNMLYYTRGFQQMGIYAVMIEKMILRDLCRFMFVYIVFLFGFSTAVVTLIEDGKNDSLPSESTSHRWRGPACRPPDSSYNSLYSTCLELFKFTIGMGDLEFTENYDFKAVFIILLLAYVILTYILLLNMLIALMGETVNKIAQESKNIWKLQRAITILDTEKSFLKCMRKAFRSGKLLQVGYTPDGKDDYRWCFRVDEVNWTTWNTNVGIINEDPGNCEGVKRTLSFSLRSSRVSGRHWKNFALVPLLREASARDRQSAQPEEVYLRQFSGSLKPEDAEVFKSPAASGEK

For `CN1CC(=O)Nc2cc(NC(=O)/C=C3\CCCOc4cc(C(F)(F)F)ccc43)ccc21` [EXAMPLE 8, (E)-2-(8-trifluoromethyl-3,4-dihydrobenzo[b]oxepin-5 (2H)-ylidene)-N-(4-methyl-3,4-dihydro-2(1H)-quinoxalinon-7-yl)acetamide], the A2 value result was “A (A2 value of less than 100 nM)”. With `O=C(/C=C1\CCCOc2cc(C(F)(F)F)ccc21)Nc1ccc2c(c1)NC(=O)C(CO)N2` (centres unmarked) [EXAMPLE 9, (E)-2-(8-trifluoromethyl-3,4-dihydrobenzo[b]oxepin-5(2H)-ylidene)-N-(3-hydroxymethyl-3,4-dihydro-2(1H)-quinoxalinon-7-yl)acetamide], the A2 value entry was “A (A2 value of less than 100 nM)”. `CN1c2ccc(NC(=O)/C=C3\CCCOc4cc(C(F)(F)F)ccc43)cc2NC(=O)C1(C)C` [EXAMPLE 11, (E)-2-(8-trifluoromethyl-3,4-dihydrobenzo[b]oxepin-5(2H)-ylidene)-N-(3,3-dimethyl-4-methyl-3,4-dihydro-2(1H)-quinoxalinon-7-yl)acetamide]: the A2 value entry is recorded as “A (A2 value of less than 100 nM)”. Take `O=C(/C=C1\CCCOc2cc(C(F)(F)F)ccc21)Nc1ccc2c(c1)NC(=O)OC2` [EXAMPLE 12, (E)-2-(8-trifluoromethyl-3,4-dihydrobenzo[b]oxepin-5(2H)-ylidene)-N-(1,4-dihydro-2H-3,1-benzoxadin-2-on-7-yl)acetamide]: the A2 value result is on record as “A (A2 value of less than 100 nM)”. On to `COCCN1Cc2ccc(NC(=O)/C=C3\CCCOc4cc(C(F)(F)F)ccc43)cc2NC1=O` [EXAMPLE 16, (E)-2-(8-trifluoromethyl-3,4-dihydrobenzo[b]oxepin-5(2H)-ylidene)-N-(3-(2-methoxyethyl)-3,4-dihydro-2(1H)-quinazolinon-7-yl)acetamide], for which the A2 value result is given as “A (A2 value of less than 100 nM)”.

For the molecule `O=C(/C=C1\CCCOc2cc(C(F)(F)F)ccc21)Nc1ccc2c(c1)NS(=O)(=O)NC2` [EXAMPLE 17, (E)-2-(8-trifluoromethyl-3,4-dihydrobenzo[b]oxepin-5(2H)-ylidene)-N-(3,4-dihydro-2,2-dioxo-1-H-2,1,3-benzothiadiazin-7-yl)acetamide], the A2 value entry is on record as “A (A2 value of less than 100 nM)”. Under `O=C(/C=C1\CCCOc2cc(C(F)(F)F)ccc21)Nc1cccc2c1CCC(=O)N2CCO` [EXAMPLE 19, (E)-2-(8-trifluoromethyl-3,4-dihydrobenzo[b]oxepin-5(2H)-ylidene)-N-(1-(2-hydroxyethyl)-3,4-dihydro-2(1H)-quinolinon-5-yl)acetamide] stands “A (A2 value of less than 100 nM)”; under `O=C(/C=C1\CCCOc2cc(C(F)(F)F)ccc21)Nc1cccc2c1OCC(=O)N2` [EXAMPLE 20, (E)-2-(8-trifluoromethyl-3,4-dihydrobenzo[b]oxepin-5(2H)-ylidene)-N-(2H-1,4-benzoxazin-3(4H)-on-8-yl)acetamide], “A (A2 value of less than 100 nM)”; under `O=C(/C=C1\CCCOc2cc(C(F)(F)F)ccc21)Nc1cccc2c1NCC(=O)N2` [EXAMPLE 21, (E)-2-(8-trifluoromethyl-3,4-dihydrobenzo[b]oxepin-5(2H)-ylidene)-N-(3,4-dihydro-2 (1H)-quinoxalinon-5-yl)acetamide], “A (A2 value of less than 100 nM)”. Under `CN1CC(=O)Nc2cccc(NC(=O)/C=C3\CCCOc4cc(C(F)(F)F)ccc43)c21` [EXAMPLE 22, (E)-2-(8-trifluoromethyl-3,4-dihydrobenzo[b]oxepin-5(2H)-ylidene)-N-(3,4-dihydro-4-methyl-2 (1H)-quinoxalinon-5-yl)acetamide] stands “A (A2 value of less than 100 nM)”; under `CC1(C)C/C(=C\C(=O)Nc2ccc3c(c2)NC(=O)CC3)c2ccc(C(F)(F)F)cc2O1` [EXAMPLE 24, (E)-2-(7-trifluoromethyl-2,2-dimethylchroman-4-ylidene)-N-(3,4-dihydroquinolin-2(1H)-on-7-yl)acetamide], “A (A2 value of less than 100 nM)”.
